Results reported in a melting point compilation (Tetko et al.; mined from patent text by program, amines drawn as free bases though some values may be those of a salt).

SMILES | melting point
CC(C)c1nc(COC(=O)N[C@H](C(=O)N[C@@H](Cc2ccccc2)[C@@H](O)C[C@H](Cc2ccccc2)NC(=O)OCc2cncs2)C(C)C)cs1 | 172 to 174 °C
CCC(C)(C)NC(Nc1ccc2c(c1)OCO2)=C(C#N)S(C)(=O)=O | 86 to 88 °C
OC[C@@H]1OC[C@H](n2c(NC3CC3)nc3cc(Cl)c(Cl)cc32)[C@@H](O)[C@H]1O | 164 °C
CCc1noc(C)c1-c1[nH]c2ccccc2c1CCCN(C)C | 131 to 133 °C
Cc1c(Br)c(C(F)(F)F)nn1C(C)C(=O)N(C)C (stereo unspecified) | 86 to 88 °C
CCC(C)C(NC(=O)OC)C(=O)NC(Cc1ccccc1)C(O)CN(Cc1ccc(-c2cncs2)cc1)NC(=O)OC(C)(C)C (stereo unspecified) | 163 to 166 °C
CC(=O)NNC1=Nc2sc(Cl)cc2C(c2c(F)cccc2F)=NC1 | 257 to 260 °C
O=C(NCl)c1cccc(C(=O)NCl)c1 | 73.5 to 75 °C
CCOC(=O)C(c1ccc(NC(=O)OC(C)(C)C)cc1)N(C)C(C)C (stereo unspecified) | 87 to 88 °C
CC1=C(C(=O)OCC(Cl)(Cl)Cl)N2C(=O)C(NC(=O)Cc3ccccc3)C2SC1 (stereo unspecified) | 162 °C
CS(=O)(=O)Nc1ccccc1SCc1ncon1 | 106 °C
C[C@H](Cc1ccc2c(c1)cc(C(=O)O)n2CC1CC1)NC[C@H](O)c1cccc(Cl)c1 | 207 to 209 °C
CCOC(=O)C1=C(C=O)Nc2ccnc(OC(C)C)c2C1c1ccccc1 (stereo unspecified) | 132 to 135 °C
N#Cc1cc2cccnc2nc1Cl | 273 °C
C/C=C/CNc1cccc(-c2ccnc3c(C(=O)c4cccs4)cnn23)c1 | 110 to 113 °C
Oc1nc(Cc2ccc(F)cc2F)ncc1F | 155 to 156 °C
C=CCC(NC(=O)c1ccc(OC)cc1)C(=O)OCC (stereo unspecified) | 76 to 78 °C
CCOc1sc(C(=O)N2CCCC2)c2c1C(=O)C(=CO)C(C)(C)C2 | 140 to 142 °C
CCOC(=O)C1=C(C)NC(C)=C([N+](=O)[O-])C1c1cccnc1 (stereo unspecified) | 264 °C

Further lines, results first:

melting point | SMILES
263 to 264 °C | Cc1cc(C#N)cc(C(=O)c2c(C(C)C)c(=O)[nH]c(=O)n2Cc2cc(F)cc(NC(=O)C(F)(F)F)c2)c1
137 °C | CCOC(=O)Cn1c(=O)n(Cc2ccc(Cl)cc2)c(=O)c2ccccc21
188 to 190 °C | CC(C)(CCOc1ccc(Cl)cc1)C(=O)Cn1cncn1
195 to 196 °C | CC(C)Cn1c(CNC(=O)OC(C)(C)C)c(-c2ccccc2)c2cc(-c3nc(N)cs3)ccc2c1=O
96.5 to 97.5 °C | CON=C(c1ccccc1COc1cccc(Cl)c1)n1ccnc1
115 to 117 °C | COc1cc(C(C)C)c(Oc2cnc(N)nc2N)cc1N1CCN(S(C)(=O)=O)CC1
142 to 144 °C | CCCCc1c(-c2cc3ccccc3o2)nc(N)nc1-c1cc2ccccc2o1
172 to 180 °C | COc1ccc([N+](=O)[O-])c(NC(C(=O)O)C(c2ccccc2)c2ccccc2)n1 (stereo unspecified)
220 to 225 °C | CCc1ccc2c(c1)C=Cc1cc(C)ccc1C2c1cn(-c2ccnc(NCC(=O)Nc3nnn[nH]3)n2)c(=O)[nH]c1=O (stereo unspecified)
114 to 116 °C | O=C(Oc1ccc(OC(=O)c2cc(O)c(O)c(O)c2)c(-c2ccccc2)c1)c1cc(O)c(O)c(O)c1
113 °C | COc1nc(C)nc(NC(=O)NS(=O)(=O)c2cc(OC(F)F)ccc2OC(F)F)n1
207 °C | CC(C)c1ccc(C(=O)C2=C(O)C(=O)N(c3cccn(C)c3=O)C2c2ccc(OC(F)(F)F)cc2)cc1 (stereo unspecified)
209 to 210 °C | O=C(O)C1Cc2ccccc2N1C(=O)c1ccccc1 (stereo unspecified)
234 to 237 °C | O=C1Cc2cc3ccccc3cc2C(c2ccccc2Cl)N1 (stereo unspecified)
181 °C | CN1CCN(S(=O)(=O)c2cccc(NC(=O)c3cnn4c(C(F)(F)F)cc(-c5ccc(Cl)c(Cl)c5)nc34)c2)CC1
168 to 169 °C | Cc1cc(C(=O)N2Cc3cccn3Cc3ccccc32)ccc1C1=CCC2CCC1C2 (stereo unspecified)
224 to 226 °C | COC(=O)c1ccc(-c2n[nH]c3c2Cc2ccccc2-3)cc1
